Measured values: ChEMBL document CHEMBL1201862, “PubChem BioAssay data set” (2004)
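1) Cells in 96-well plates. 2) Compound, 48 h, 5 concentrations. 3) Linear interpolation between surrounding doses. 4) Unreached endpoint = highest concentration. Here, GI50 denotes the concentration required for 50% inhibition of growth.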 Activity calls are given as the source filed them. No stated cut-off is given here; in the data, active = GI50 up to about 1.1 µM and inactive = higher.

Assays:
Assay in all cases: inhibition of tumour cell growth, NCI panel, 48 h
MOLT-4 = system: MOLT-4
A549 = system: A549
SNB-75 = system: SNB-75
SK-MEL-2 = system: SK-MEL-2
M14 = system: M14
U-251 = system: U-251
NCI-H522 = system: NCI-H522
TK-10 = system: TK-10
SNB-78 = system: SNB-78
SK-MEL-28 = system: SK-MEL-28
SN12C = system: SN12C
CAKI-1 = system: CAKI-1
LOX IMVI = system: LOX IMVI
RPMI-8226 = system: RPMI-8226
HCT-15 = system: HCT-15
OVCAR-5 = system: OVCAR-5
IGROV-1 = system: IGROV-1
SNB-19 = system: SNB-19
Malme-3M = system: Malme-3M
M19-MEL = system: M19-MEL
NCI-H460 = system: NCI-H460
RXF 393 = system: RXF 393
HT-29 = system: HT-29
DLD-1 = system: DLD-1
EKVX = system: EKVX
SF-295 = system: SF-295
DMS-273 = system: DMS-273
HCC 2998 = system: HCC 2998
HCT-116 = system: HCT-116
SW-620 = system: SW-620
OVCAR-8 = system: OVCAR-8
DMS-114 = system: DMS-114
SK-MEL-5 = system: SK-MEL-5
SK-OV-3 = system: SK-OV-3
XF498 = system: XF498
OVCAR-4 = system: OVCAR-4
SF-268 = system: SF-268
ACHN = system: ACHN
KM-20L2 = system: KM-20L2
CCRF-CEM = system: CCRF-CEM
HOP-62 = system: HOP-62
K562 = system: K562
OVCAR-3 = system: OVCAR-3
KM12 = system: KM12
COLO 205 = system: COLO 205
UACC-257 = system: UACC-257
786-0 = system: 786-0
LXFL 529 = system: LXFL 529
SR = system: SR
UACC-62 = system: UACC-62
NCI-H226 = system: NCI-H226
HL-60 = system: HL-60
NCI-H23 = system: NCI-H23
UO-31 = system: UO-31
HOP-18 = system: HOP-18
SF-539 = system: SF-539
HOP-92 = system: HOP-92
A498 = system: A498
NCI/ADR-RES = system: NCI/ADR-RES
MCF7 = system: MCF7

Compound: O=C1C(Cl)C(c2ccccc2Cl)N1n1cnc2ccccc2c1=O (centres undefined)
- GI50 (MOLT-4): 68.5 µM (inactive)
- GI50 (A549): > 100 µM (inactive)
- GI50 (SNB-75): 20.2 µM (inactive)
- GI50 (SK-MEL-2): 24.7 µM (inactive)
- GI50 (M14): 94 µM (inactive)
- GI50 (U-251): 48.4 µM (inactive)
- GI50 (NCI-H522): 25.8 µM (inactive)
- GI50 (TK-10): 46.7 µM (inactive)
- GI50 (SNB-78): > 100 µM (inactive)
- GI50 (SK-MEL-28): > 100 µM (inactive)
- GI50 (SN12C): > 100 µM (inactive)
- GI50 (CAKI-1): 47.6 µM (inactive)
- GI50 (LOX IMVI): 19.6 µM (inactive)
- GI50 (RPMI-8226): 35 µM (inactive)
- GI50 (HCT-15): 72.6 µM
- GI50 (OVCAR-5): > 100 µM (inactive)
- GI50 (IGROV-1): 80.4 µM (inactive)
- GI50 (SNB-19): 22.5 µM (inactive)
- GI50 (Malme-3M): > 100 µM (inactive)
- GI50 (M19-MEL): > 100 µM (inactive)
- GI50 (NCI-H460): > 100 µM (inactive)
- GI50 (RXF 393): 17.5 µM (inactive)
- GI50 (HT-29): > 100 µM (inactive)
- GI50 (DLD-1): 61.7 µM (inactive)
- GI50 (EKVX): 18.5 µM (inactive)
- GI50 (SF-295): 29.4 µM (inactive)
- GI50 (DMS-273): 26 µM (inactive)
- GI50 (HCC 2998): 39.6 µM (inactive)
- GI50 (HCT-116): 36.1 µM (inactive)
- GI50 (SW-620): 31.9 µM (inactive)
- GI50 (OVCAR-8): > 100 µM (inactive)
- GI50 (DMS-114): 16.4 µM (inactive)
- GI50 (SK-MEL-5): > 100 µM (inactive)
- GI50 (SK-OV-3): 24.2 µM (inactive)
- GI50 (XF498): 67.6 µM (inactive)
- GI50 (OVCAR-4): > 100 µM (inactive)
- GI50 (SF-268): 54.5 µM (inactive)
- GI50 (ACHN): 76.2 µM (inactive)
- GI50 (KM-20L2): > 100 µM (inactive)
- GI50 (CCRF-CEM): 45.8 µM (inactive)
- GI50 (HOP-62): 16.3 µM (inactive)
- GI50 (K562): 18.7 µM (inactive)
- GI50 (OVCAR-3): > 100 µM (inactive)
- GI50 (KM12): > 100 µM (inactive)
- GI50 (COLO 205): > 100 µM (inactive)
- GI50 (UACC-257): 37.2 µM (inactive)
- GI50 (786-0): 75.7 µM (inactive)
- GI50 (LXFL 529): 49.1 µM (inactive)
- GI50 (SR): 5.13 µM (inactive)
- GI50 (UACC-62): 21.6 µM (inactive)
- GI50 (NCI-H226): 8.32 µM (inactive)
- GI50 (HL-60): 8.69 µM (inactive)
- GI50 (NCI-H23): 49.1 µM (inactive)
- GI50 (UO-31): 7.52 µM (inactive)

Compound: O=C(Cc1nc2ccccc2s1)C(=O)Nc1cccc(C(F)(F)F)c1
- GI50 (HOP-18): > 100 µM (inactive)
- GI50 (MOLT-4): > 100 µM (inactive)
- GI50 (A549): > 100 µM (inactive)
- GI50 (SNB-75): > 100 µM (inactive)
- GI50 (SK-MEL-2): > 100 µM (inactive)
- GI50 (M14): > 100 µM (inactive)
- GI50 (U-251): > 100 µM (inactive)
- GI50 (NCI-H522): > 100 µM (inactive)
- GI50 (TK-10): > 100 µM (inactive)
- GI50 (SNB-78): > 100 µM (inactive)
- GI50 (SK-MEL-28): > 100 µM (inactive)
- GI50 (SN12C): > 100 µM (inactive)
- GI50 (CAKI-1): > 100 µM (inactive)
- GI50 (SF-539): > 100 µM (inactive)
- GI50 (HCT-15): > 100 µM
- GI50 (IGROV-1): > 100 µM (inactive)
- GI50 (SNB-19): > 100 µM (inactive)
- GI50 (Malme-3M): > 100 µM (inactive)
- GI50 (M19-MEL): > 100 µM (inactive)
- GI50 (NCI-H460): > 100 µM (inactive)
- GI50 (RXF 393): > 100 µM (inactive)
- GI50 (HT-29): > 100 µM (inactive)
- GI50 (DLD-1): > 100 µM (inactive)
- GI50 (EKVX): > 100 µM (inactive)
- GI50 (SF-295): > 100 µM (inactive)
- GI50 (DMS-273): > 100 µM (inactive)
- GI50 (HCC 2998): > 100 µM (inactive)
- GI50 (HCT-116): > 100 µM (inactive)
- GI50 (SW-620): > 100 µM (inactive)
- GI50 (OVCAR-8): > 100 µM (inactive)
- GI50 (DMS-114): > 100 µM (inactive)
- GI50 (SK-MEL-5): > 100 µM (inactive)
- GI50 (SK-OV-3): > 100 µM (inactive)
- GI50 (HOP-92): > 100 µM (inactive)
- GI50 (OVCAR-4): > 100 µM (inactive)
- GI50 (SF-268): > 100 µM (inactive)
- GI50 (A498): > 100 µM (inactive)
- GI50 (ACHN): > 100 µM (inactive)
- GI50 (KM-20L2): > 100 µM (inactive)
- GI50 (CCRF-CEM): > 100 µM (inactive)
- GI50 (HOP-62): > 100 µM (inactive)
- GI50 (OVCAR-3): > 100 µM (inactive)
- GI50 (KM12): > 100 µM (inactive)
- GI50 (COLO 205): > 100 µM (inactive)
- GI50 (UACC-257): > 100 µM (inactive)
- GI50 (786-0): > 100 µM (inactive)
- GI50 (LXFL 529): > 100 µM (inactive)
- GI50 (SR): > 100 µM (inactive)
- GI50 (UACC-62): > 100 µM (inactive)
- GI50 (NCI-H226): > 100 µM (inactive)
- GI50 (HL-60): > 100 µM (inactive)
- GI50 (NCI-H23): > 100 µM (inactive)
- GI50 (UO-31): > 100 µM (inactive)

Compound: O=C(O)C(Cc1cccs1)NC(=O)C(F)(F)F (centres undefined)
- GI50 (HOP-18): > 100 µM (inactive)
- GI50 (MOLT-4): > 100 µM (inactive)
- GI50 (A549): > 100 µM (inactive)
- GI50 (SNB-75): > 100 µM (inactive)
- GI50 (SK-MEL-2): > 100 µM (inactive)
- GI50 (U-251): > 100 µM (inactive)
- GI50 (NCI-H522): > 100 µM (inactive)
- GI50 (SK-MEL-28): > 100 µM (inactive)
- GI50 (SN12C): > 100 µM (inactive)
- GI50 (CAKI-1): > 100 µM (inactive)
- GI50 (SF-539): > 100 µM (inactive)
- GI50 (LOX IMVI): > 100 µM (inactive)
- GI50 (RPMI-8226): > 100 µM (inactive)
- GI50 (HCT-15): > 100 µM
- GI50 (OVCAR-5): > 100 µM (inactive)
- GI50 (IGROV-1): > 100 µM (inactive)
- GI50 (SNB-19): > 100 µM (inactive)
- GI50 (Malme-3M): > 100 µM (inactive)
- GI50 (M19-MEL): > 100 µM (inactive)
- GI50 (NCI-H460): > 100 µM (inactive)
- GI50 (RXF 393): > 100 µM (inactive)
- GI50 (HT-29): > 100 µM (inactive)
- GI50 (DLD-1): > 100 µM (inactive)
- GI50 (EKVX): > 100 µM (inactive)
- GI50 (SF-295): > 100 µM (inactive)
- GI50 (DMS-273): > 100 µM (inactive)
- GI50 (HCC 2998): > 100 µM (inactive)
- GI50 (HCT-116): > 100 µM (inactive)
- GI50 (SW-620): > 100 µM (inactive)
- GI50 (OVCAR-8): > 100 µM (inactive)
- GI50 (DMS-114): > 100 µM (inactive)
- GI50 (SK-MEL-5): > 100 µM (inactive)
- GI50 (SK-OV-3): > 100 µM (inactive)
- GI50 (HOP-92): > 100 µM (inactive)
- GI50 (OVCAR-4): > 100 µM (inactive)
- GI50 (SF-268): > 100 µM (inactive)
- GI50 (A498): > 100 µM (inactive)
- GI50 (KM-20L2): > 100 µM (inactive)
- GI50 (CCRF-CEM): > 100 µM (inactive)
- GI50 (HOP-62): > 100 µM (inactive)
- GI50 (K562): > 100 µM (inactive)
- GI50 (OVCAR-3): > 100 µM (inactive)
- GI50 (KM12): > 100 µM (inactive)
- GI50 (COLO 205): > 100 µM (inactive)
- GI50 (UACC-257): > 100 µM (inactive)
- GI50 (NCI/ADR-RES): > 100 µM (inactive)
- GI50 (UACC-62): > 100 µM (inactive)
- GI50 (NCI-H226): > 100 µM (inactive)
- GI50 (HL-60): > 100 µM (inactive)
- GI50 (MCF7): > 100 µM (inactive)
- GI50 (NCI-H23): > 100 µM (inactive)
- GI50 (UO-31): > 100 µM (inactive)
